≈ marks a conversion by molar mass, not a printed value.
Legend:
Assay in all cases: In vitro anti-bacterial activity (MIC90), ophthalmologic clinical bacteria isolates
Format in all cases: cell-based
Moraxella species = settings: Gram-negative
[1] = system: Coagulase-negative Staphylococcus; settings: Gram-positive
[2] = system: Ofloxacin-resistant Staphylococcus aureus; settings: antibiotic-resistant organisms
Staphylococcus aureus = settings: Gram-positive
[3] = system: Penicillin-resistant Streptococcus pneumoniae; settings: antibiotic-resistant organisms
Streptococcus pneumoniae = settings: Gram-positive
Pseudomonas aeruginosa = settings: Gram-negative
Propionibacterium acnes = settings: Cutibacterium acnes, Gram-positive
Corynebacterium species = settings: Gram-positive
Text: As disclosed above, most of these bacteria strains are also relevant to infections of the ear and upper respiratory tract.

Haemophilus influenzae = settings: Gram-negative
[4] = system: Gentamycin-resistant Pseudomonas aeruginosa; settings: antibiotic-resistant organisms
[5] = system: Gentamycin-resistant Staphylococcus aureus; settings: antibiotic-resistant organisms

`CCn1cc(C(=O)O)c(=O)c2cc(F)c(N3CCNCC3)cc21` [Norfloxacin] was tested, and the MIC90 (Moraxella species) was 0.25 µg/mL (≈ 0.783 µM), the MIC90 [1] was 128 µg/mL (≈ 401 µM) and the MIC90 [2] was greater than 128 µg/mL. For the same compound, the MIC90 (Staphylococcus aureus) was greater than 128 µg/mL, the MIC90 [3] was 8 µg/mL (≈ 25.1 µM) and the MIC90 (Streptococcus pneumoniae) was 8 µg/mL (≈ 25.1 µM). For the same compound, the MIC90 (Pseudomonas aeruginosa) was 4 µg/mL (≈ 12.5 µM), the MIC90 (Propionibacterium acnes) was 4 µg/mL (≈ 12.5 µM) and the MIC90 (Corynebacterium species) was 16 µg/mL (≈ 50.1 µM). The MIC90 (Haemophilus influenzae) was no more than 0.06 µg/mL, the MIC90 [4] was 128 µg/mL (≈ 401 µM) and the MIC90 [5] was 128 µg/mL (≈ 401 µM).

Source: patent publication US20090082337A1, “Compositions Comprising Quinolone and Methods for Treating or Controlling Infections” (priority 2007, published 2009)
